Where two headings read alike, the source gives them in different places.
Columns and labels:
[1] = system: SKBR3 cells; assay: Anti-tumor cell proliferation activity of compound of formula (D-H), Cell-Titer Glo, SKBR3; type: cell-based, human; details: Homo sapiens, SK-BR-3, 120 h, read-out: SKBR3 Antiproliferative activity IC50 (nM), SKBR3 cells, 5 days
Description: (§1) Cell culture: HCT116 cells and SKBR3 cells were cultured with a McCoy's 5a medium containing 10% fetal bovine serum+1% penicillin-streptomycin at 37° C. with 5% CO2, and OVCAR3 cells were cultured with a 1640 medium containing 20% fetal bovine serum+2 μg/mL bovine insulin+1% penicillin-streptomycin at 37° C. with 5% CO2. Cells at logarithmic growth phase were available for the experiment.
(§2) Cell proliferation activity test: The Cell-Titer Glo reagent was used to test the compound for inhibitory activity on proliferation of the three cell strains HCT116, SKBR3, and OVCAR3. HCT116 cells (1500 per well), SKBR3 cells (3000 per well), and OVCAR3 cells (5000 per well) were seeded on 96-well plates and incubated at 37° C. with 5% CO2 for 24 h. After a solution of the compound to be detected was added (the compound was dissolved in DMSO so that the compound concentration was 1 mM, then the compound was diluted to […] in DMSO at 9 concentrations in a 3-fold dilution, and 10 μL of the prepared compound solution was transferred to the 96-well plate so that the final concentration was 0-300 nM), the mixture was incubated at 37° C. with 5% CO2. HCT116 cells were cultured for 3 days, and SKBR3 cells and OVCAR3 cells were cultured for 5 days. The Cell-Titer Glo reagent was added and the cell activity was measured.
(§3) A negative control group and a positive control group were respectively used as Bottom and Top. The negative control group was not added with cells, only added with the culture medium in the same volume, and other operations were consistent with those of the experimental group. The positive control group was not added with the test drug, and other operations were consistent with those of the experimental group.
(§4) Data analysis: % Inhibition was calculated, and compound IC50 was fitted.
(§5) % Inhibition=1-100%×(Signal−Bottom)/(Top−Bottom).
(§6) Signal referred to the signal value of the experimental group, Bottom referred to the average signal value of the negative control group, and Top referred to the average signal value of the positive control group.

[2] = system: HCT116 cells; assay: Anti-tumor cell proliferation activity of compound of formula (D-H), Cell-Titer Glo, HCT116; type: cell-based; details: Homo sapiens, HCT-116, 72 h
Description: as §1, §2, §3, §4, §5, §6

[3] = system: OVCAR3 cells; assay: Anti-tumor cell proliferation activity of compound of formula (D-H), Cell-Titer Glo, OVCAR3; type: cell-based; details: Homo sapiens, OVCAR-3, 120 h
Description: as §1, §2, §3, §4, §5, §6

[4] = read-out: HCT116 Antiproliferative activity IC50 (nM), HCT116 cells, 3 days
[5] = read-out: OVCAR3 Antiproliferative activity IC50 (nM)
[6] = HCT116 cells, 3 days, read-out: HCT116 Antiproliferative activity IC50

CC[C@@]1(O)C(=O)OCc2c1cc1n(c2=O)Cc2c-1nc1cc3c(cc1c2CNC(=O)CO)OCCO3 [Compound 1, (S)-N-((8-ethyl-8-hydroxy-9,12-dioxo-2,3,8,9,12,14-hexahydro-11H-[1,4]dioxino[2,3-g]pyrano[3′,4′:6,7]indolizino[1,2-b]quinolin-15-yl)methyl)-2-hydroxyacetamide]
IC50 [1]: 8.5 nM

CC[C@@]1(O)C(=O)OCc2c1cc1n(c2=O)Cc2c-1nc1cc(F)c(Cl)cc1c2CNC(=O)CO [Compound 3, (S)-N-((9-chloro-4-ethyl-8-fluoro-4-hydroxy-3,14-dioxo-3,4,12,14-tetrahydro-1H-pyrano[3′,4′:6,7]indolizino[1,2-b]quinolin-11-yl)methyl)-2-hydroxyacetamide]
IC50 [1]: 3.6 nM

CC[C@@]1(O)C(=O)OCc2c1cc1n(c2=O)Cc2c-1nc1cc(F)c(Br)cc1c2CNC(=O)CO [Compound 5, (S)-N-((9-bromo-4-ethyl-8-fluoro-4-hydroxy-3,14-dioxo-3,4,12,14-tetrahydro-1H-pyrano[3′,4′:6,7]indolizino[1,2-b]quinolin-11-yl)methyl)-2-hydroxyacetamide]
IC50 [1]: 3.3 nM

CC[C@@]1(O)C(=O)OCc2c1cc1n(c2=O)Cc2c-1nc1ccc3c(c1c2CNC(=O)CO)CCC3 [Compound 7, (S)-N-((8-ethyl-8-hydroxy-9,12-dioxo-2,3,8,9,12,14-hexahydro-1H,11H-cyclopenta[f]pyrano[3′,4′:6,7]indolizino[1,2-b]quinolin-15-yl)methyl)-2-hydroxyacetamide]
IC50 [2, 4]: 10 to 100 nM

CC[C@@]1(O)C(=O)OCc2c1cc1n(c2=O)Cc2c-1nc1cc(F)c(C)cc1c2CNC(=O)C1(O)CC1 [Compound 9, (S)-N-((4-ethyl-8-fluoro-4-hydroxy-9-methyl-3,14-dioxo-3,4,12,14-tetrahydro-1H-pyrano[3′,4′:6,7]indolizino[1,2-b]quinolin-11-yl)methyl)-1-hydroxycyclopropane-1-carboxamide]
IC50 [2, 4]: < 10 nM
IC50 [1]: 2.1 nM

CC[C@@]1(O)C(=O)OCc2c1cc1n(c2=O)Cc2c-1nc1cc(Cl)c(C)cc1c2CNC(=O)C1(O)CC1 [Compound 10, (S)-N-((8-chloro-4-ethyl-4-hydroxy-9-methyl-3,14-dioxo-3,4,12,14-tetrahydro-1H-pyrano[3′,4′:6,7]indolizino[1,2-b]quinolin-11-yl)methyl)-1-hydroxycyclopropane-1-carboxamide]
IC50 [2, 4]: < 10 nM
IC50 [1]: 2.3 nM

CC[C@@]1(O)C(=O)OCc2c1cc1n(c2=O)Cc2c-1nc1cc(Cl)c(C)cc1c2CNC(=O)C(O)C1CC1 (stereo partly drawn) [Compound 11, N—(((S)-8-chloro-4-ethyl-4-hydroxy-9-methyl-3,14-dioxo-3,4,12,14-tetrahydro-1H-pyrano[3′,4′:6,7]indolizino[1,2-b]quinolin-11-yl)methyl)-2-cyclopropyl-2-hydroxyacetamide]
IC50 [1]: 3.2 nM

CC[C@@]1(O)C(=O)OCc2c1cc1n(c2=O)Cc2c-1nc1ccc3c(c1c2CNC(=O)C(O)C1CC1)CCC3 (stereo partly drawn) [Compound 13, 2-cyclopropyl-N—(((S)-8-ethyl-8-hydroxy-9,12-dioxo-2,3,8,9,12,14-hexahydro-1H,11H-cyclopenta[f]pyrano[3′,4′:6,7]indolizino[1,2-b]quinolin-15-yl)methyl)-2-hydroxyacetamide]
IC50 [3, 5]: 0.7 nM
IC50 [2, 4]: < 10 nM

CC[C@@]1(O)C(=O)OCc2c1cc1n(c2=O)Cc2c-1nc1cnc(Br)cc1c2CNC(=O)CO [Compound 15, (S)-N-((9-bromo-4-ethyl-4-hydroxy-3,14-dioxo-3,4,12,14-tetrahydro-1H-pyrano[3′,4′:6,7]indolizino[1,2-b][1,7]naphthyridin-11-yl)methyl)-2-hydroxyacetamide]
IC50 [2, 4]: 10 to 100 nM

CC[C@@]1(O)C(=O)OCc2c1cc1n(c2=O)Cc2c-1nc1cc(F)c(Cl)c(F)c1c2CNC(=O)C1(O)CC1 [Compound 16, (S)-N-((9-chloro-4-ethyl-8,10-difluoro-4-hydroxy-3,14-dioxo-3,4,12,14-tetrahydro-1H-pyrano[3′,4′:6,7]indolizino[1,2-b]quinolin-11-yl)methyl)-1-hydroxycyclopropane-1-carboxamide]
IC50 [2, 4]: < 10 nM
IC50 [1]: 2.3 nM

CC[C@@]1(O)C(=O)OCc2c1cc1n(c2=O)Cc2c-1nc1cc(Cl)c(C)cc1c2CNC(=O)C(C)(C)O [Compound 17, (S)-N-((8-chloro-4-ethyl-4-hydroxy-9-methyl-3,14-dioxo-3,4,12,14-tetrahydro-1H-pyrano[3′,4′:6,7]indolizino[1,2-b]quinolin-11-yl)methyl)-2-hydroxy-2-methylpropanamide]
IC50 [2, 4]: < 10 nM
IC50 [1]: 2.7 nM

CC[C@@]1(O)C(=O)OCc2c1cc1n(c2=O)Cc2c-1nc1cc(Cl)c(C)cc1c2CNC(=O)C(O)C(C)C (stereo partly drawn) [Compound 18, N—(((S)-8-chloro-4-ethyl-4-hydroxy-9-methyl-3,14-dioxo-3,4,12,14-tetrahydro-1H-pyrano[3′,4′:6,7]indolizino[1,2-b]quinolin-11-yl)methyl)-2-hydroxy-3-methylbutanamide]
IC50 [2, 4]: 10 to 100 nM
IC50 [1]: 5.1 nM

[2H]C1([2H])Oc2cc3nc4c(c(CNC(=O)C(O)C5CC5)c3cc2O1)Cn1c-4cc2c(c1=O)COC(=O)[C@]2(O)CC (stereo partly drawn) [Compound 19, 2-cyclopropyl-N—(((S)-7-ethyl-7-hydroxy-8,11-dioxo-7,8,11,13-tetrahydro-10H-[1,3]dioxolo[4,5-g]pyrano[3′,4′:6,7]indolizino[1,2-b]quinolin-14-yl-2,2-d2)methyl)-2-hydroxyacetamide]
IC50 [2, 4]: < 10 nM

[2H]C1([2H])Oc2cc3nc4c(c(CNC(=O)[C@@H](O)C5CC5)c3cc2O1)Cn1c-4cc2c(c1=O)COC(=O)[C@]2(O)CC [Compound 19-P1, (S)-2-cyclopropyl-N—(((S)-7-ethyl-7-hydroxy-8,11-dioxo-7,8,11,13-tetrahydro-10H-[1,3]dioxolo[14,5-g]pyrano[3′,4′:6,7]indolizino[1,2-b]quinolin-14-yl-2,2-d2)methyl)-2-hydroxyacetamide]
IC50 [3, 5]: 0.6 nM
IC50 [2, 4]: < 10 nM

[2H]C1([2H])Oc2cc3nc4c(c(CNC(=O)[C@@H](O)C5CC5)c3cc2O1)Cn1c-4cc2c(c1=O)COC(=O)[C@]2(O)CC [Compound 19-P2, 2-cyclopropyl-N—(((S)-7-ethyl-7-hydroxy-8,11-dioxo-7,8,11,13-tetrahydro-10H-[1,3]dioxolo[4,5-g]pyrano[3′,4′:6,7]indolizino[1,2-b]quinolin-14-yl-2,2-d2)methyl)-2-hydroxyacetamide]
IC50 ([3]; OVCAR3 cells, 5 days, read-out: OVCAR3 Antiproliferative activity IC50): 1 nM
IC50 [2, 6]: < 10 nM

CC[C@@]1(O)C(=O)OCc2c1cc1n(c2=O)Cc2c-1nc1ccc3occc3c1c2CNC(=O)CO [Compound 20, (S)-N-((8-ethyl-8-hydroxy-9,12-dioxo-8,9,12,14-tetrahydro-11H-furo[3,2-f]pyrano [3′,4′:6,7]indolizino[1,2-b]quinolin-15-yl)methyl)-2-hydroxyacetamide]
IC50 [2, 4]: 10 to 100 nM
IC50 [1]: 10.5 nM

CC[C@@]1(O)C(=O)OCc2c1cc1n(c2=O)Cc2c-1nc1cc(Cl)c3occc3c1c2CNC(=O)CO [Compound 27, (S)-N-((4-chloro-8-ethyl-8-hydroxy-9,12-dioxo-8,9,12,14-tetrahydro-11H-furo[3,2-f]pyrano[3′,4′:6,7]indolizino[1,2-b]quinolin-15-yl)methyl)-2-hydroxyacetamide]
IC50 [2, 4]: 10 to 100 nM

CC[C@@]1(O)C(=O)OCc2c1cc1n(c2=O)Cc2c-1nc1cc(Cl)c3occc3c1c2CNC(=O)C(O)C1CC1 (stereo partly drawn) [Compound 28, N—(((S)-4-chloro-8-ethyl-8-hydroxy-9,12-dioxo-8,9,12,14-tetrahydro-11H-furo[3,2-f]pyrano[3′,4′:6,7]indolizino[1,2-b]quinolin-15-yl)methyl)-2-cyclopropyl-2-hydroxyacetamide]
IC50 [2, 4]: < 10 nM

CC[C@@]1(O)C(=O)OCc2c1cc1n(c2=O)Cc2c-1nc1cc3c(c([N+](=O)[O-])c1c2CNC(=O)C(O)C1CC1)OCO3 (stereo partly drawn) [Compound 29, 2-cyclopropyl-N—(((S)-7-ethyl-7-hydroxy-15-nitro-8,11-dioxo-7,8,11,13-tetrahydro-10H-[1,3]dioxolo[4,5-g]pyrano[3′,4′:6,7]indolizino[1,2-b]quinolin-14-yl)methyl)-2-hydroxyacetamide]
IC50 [2, 4]: 10 to 100 nM

CC[C@@]1(O)C(=O)OCc2c1cc1n(c2=O)Cc2c-1nc1cc3c(c(F)c1c2CNC(=O)[C@@H](O)C1CC1)OCO3 [Compound 35-P1, 2-cyclopropyl-N-(((S)-7-ethyl-15-fluoro-7-hydroxy-8,11-dioxo-7,8,11,13-tetrahydro-10H-[1,3]dioxolo[4,5-g]pyrano[3′,4′:6,7]indolizino[1,2-b]quinolin-14-yl)methyl)-2-hydroxyacetamide]
IC50 [2, 6]: < 10 nM
